Laboratory results taken from PubChem BioAssay AID220 (DTP/NCI, 2004).
Several values for one entry are separate records, joined by “and”; a condition that tells them apart may be missing. Identical values can stand only once. Inconclusive results are not listed.

Tested on: CD8F1 mice, subcutaneous mammary adenocarcinoma, T/C%
Assay: NCI In Vivo Anticancer Drug Screen. Data for tumor model Mammary Adenocarcinoma CD8F1 (subcutaneous) in CD8F1
Details: higher = larger tumour
Outline: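 Ratio of treated to vehicle-control outcome, based on either survival or tumor size, in mice bearing transplantable tumors given the test compound.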

[1] = endpoint: median tumor weight (est.), dose: 25.0 mg/kg/injection, schedule: Q07DX005 (ip), vehicle: saline
[2] = endpoint: median tumor weight (est.), dose: 50.0 mg/kg/injection, schedule: Q07DX005 (ip), vehicle: saline
[3] = endpoint: median tumor weight (est.), dose: 100.0 mg/kg/injection, schedule: Q07DX005 (ip), vehicle: saline
[4] = endpoint: median tumor weight (est.), dose: 200.0 mg/kg/injection, schedule: Q07DX005 (ip), vehicle: saline
[5] = endpoint: median tumor weight (est.), dose: 400.0 mg/kg/injection, schedule: Q07DX005 (ip), vehicle: saline
[6] = endpoint: median tumor weight change, dose: 125.0 mg/kg/injection, schedule: Q01DX001 (ip), vehicle: saline
[7] = endpoint: median tumor weight change, dose: 250.0 mg/kg/injection, schedule: Q01DX001 (ip), vehicle: saline
[8] = endpoint: median tumor weight (est.), dose: 3.0 mg/kg/injection, schedule: Q07DX005 (ip), vehicle: Klucel (hydroxypropylcellulose) (HPC)
[9] = endpoint: median tumor weight (est.), dose: 6.0 mg/kg/injection, schedule: Q07DX005 (ip), vehicle: Klucel (hydroxypropylcellulose) (HPC)
[10] = endpoint: median tumor weight (est.), dose: 12.0 mg/kg/injection, schedule: Q07DX005 (ip), vehicle: Klucel (hydroxypropylcellulose) (HPC)
[11] = endpoint: median tumor weight (est.), dose: 24.0 mg/kg/injection, schedule: Q07DX005 (ip), vehicle: Klucel (hydroxypropylcellulose) (HPC)

O=c1[nH]c(=O)n(C2CC(O)C(CO)O2)cc1F (stereo not given)
T/C (endpoint: mean tumor weight, dose: 25.0 mg/kg/injection, schedule: Q01DX009 (ip), vehicle: saline): 50 % of control
T/C (endpoint: mean tumor weight, dose: 50.0 mg/kg/injection, schedule: Q01DX009 (ip), vehicle: saline): 20 % of control
T/C (endpoint: mean tumor weight, dose: 100.0 mg/kg/injection, schedule: Q01DX009 (ip), vehicle: saline): 30 % of control
T/C (endpoint: mean tumor weight, dose: 125.0 mg/kg/injection, schedule: Q07DX005 (ip), vehicle: saline): 585 % of control
T/C (endpoint: mean tumor weight, dose: 125.0 mg/kg/injection, schedule: Q07DX006 (ip), vehicle: saline): 49 % of control
T/C (endpoint: mean tumor weight, dose: 250.0 mg/kg/injection, schedule: Q07DX005 (ip), vehicle: saline): 180 % of control
T/C (endpoint: mean tumor weight, dose: 250.0 mg/kg/injection, schedule: Q07DX006 (ip), vehicle: saline): 6 % of control
T/C (endpoint: mean tumor weight, dose: 500.0 mg/kg/injection, schedule: Q07DX005 (ip), vehicle: saline): 473 % of control
T/C (endpoint: median tumor weight (est.), dose: 12.5 mg/kg/injection, schedule: Q07DX005 (ip), vehicle: saline): 97 % of control
T/C [1]: 116 % of control
T/C [2]: 72 % of control and 81 % of control
T/C [3]: 62 % of control and 78 % of control
T/C [4]: 27 % of control and 46 % of control
T/C [5]: 5 % of control and 11 % of control

Cc1ccc(S(=O)(=O)N/N=C/C(=O)O)cc1
T/C (endpoint: median tumor weight (est.), dose: 12.5 mg/kg/injection, schedule: Q07DX005 (ip), vehicle: Klucel (hydroxypropylcellulose) (HPC)): 60 % of control
T/C (endpoint: median tumor weight (est.), dose: 12.5 mg/kg/injection, schedule: Q07DX005 (ip), vehicle: other): 97 % of control
T/C (endpoint: median tumor weight (est.), dose: 25.0 mg/kg/injection, schedule: Q07DX005 (ip), vehicle: Klucel (hydroxypropylcellulose) (HPC)): 120 % of control
T/C (endpoint: median tumor weight (est.), dose: 25.0 mg/kg/injection, schedule: Q07DX005 (ip), vehicle: other): 70 % of control and 76 % of control
T/C (endpoint: median tumor weight (est.), dose: 50.0 mg/kg/injection, schedule: Q07DX005 (ip), vehicle: Klucel (hydroxypropylcellulose) (HPC)): 62 % of control
T/C (endpoint: median tumor weight (est.), dose: 100.0 mg/kg/injection, schedule: Q07DX005 (ip), vehicle: Klucel (hydroxypropylcellulose) (HPC)): 53 % of control

Brc1c(NC2=NCCN2)ccc2nccnc12
T/C (endpoint: median tumor weight change, dose: 15.6 mg/kg/injection, schedule: Q01DX001 (ip), vehicle: saline): 52 % of control
T/C (endpoint: median tumor weight change, dose: 31.25 mg/kg/injection, schedule: Q01DX001 (ip), vehicle: saline): 77 % of control
T/C (endpoint: median tumor weight change, dose: 62.5 mg/kg/injection, schedule: Q01DX001 (ip), vehicle: saline): 81 % of control
T/C [6]: 92 % of control
T/C [7]: 53 % of control

c1ccc2c(c1)[As]=c1ccccc1=[As]2 (stereo not given)
T/C (endpoint: median tumor weight change, dose: 60.0 mg/kg/injection, schedule: Q01DX001 (ip), vehicle: saline with Tween-80): 159 % of control
T/C (endpoint: median tumor weight change, dose: 120.0 mg/kg/injection, schedule: Q01DX001 (ip), vehicle: saline with Tween-80): 158 % of control
T/C (endpoint: median tumor weight change, dose: 240.0 mg/kg/injection, schedule: Q01DX001 (ip), vehicle: saline with Tween-80): 31 % of control

Cc1c(N)nc([C@H](CC(N)=O)NC[C@H](N)C(N)=O)nc1C(=O)N[C@H](C(=O)N[C@H](C)[C@@H](O)[C@H](C)C(=O)N[C@H](C(=O)NCCc1nc(-c2nc(C(=O)NCCC[S+](C)C)cs2)cs1)[C@@H](C)O)C(OC1OC(CO)C(O)C(O)C1OC1OC(CO)C(O)C(OC(N)=O)C1O)c1cnc[nH]1 (stereo not given in full)
T/C (endpoint: median tumor weight (est.), dose: 1.0 mg/kg/injection, schedule: Q07DX006 (ip), vehicle: saline): 93 % of control
T/C (endpoint: median tumor weight (est.), dose: 2.0 mg/kg/injection, schedule: Q07DX005 (ip), vehicle: saline): 25 % of control
T/C (endpoint: median tumor weight (est.), dose: 2.0 mg/kg/injection, schedule: Q07DX006 (ip), vehicle: saline): 100 % of control
T/C (endpoint: median tumor weight (est.), dose: 8.0 mg/kg/injection, schedule: Q07DX006 (ip), vehicle: saline): 55 % of control
T/C (endpoint: median tumor weight (est.), dose: 16.0 mg/kg/injection, schedule: Q07DX005 (ip), vehicle: saline): 10 % of control and 13 % of control and 23 % of control
T/C (endpoint: median tumor weight (est.), dose: 16.0 mg/kg/injection, schedule: Q07DX006 (ip), vehicle: saline): 61 % of control
T/C (endpoint: median tumor weight (est.), dose: 32.0 mg/kg/injection, schedule: Q07DX005 (ip), vehicle: saline): 6 % of control and 7 % of control
T/C (endpoint: median tumor weight (est.), dose: 32.0 mg/kg/injection, schedule: Q07DX006 (ip), vehicle: saline): 8 % of control
T/C (endpoint: median tumor weight (est.), dose: 64.0 mg/kg/injection, schedule: Q07DX005 (ip), vehicle: saline): 2 % of control
T/C (endpoint: median tumor weight change, dose: 4.0 mg/kg/injection, schedule: Q01DX001 (ip), vehicle: saline): 124 % of control

CC12CCC3C(CCC4CC(OC(=O)Cc5ccc(N(CCCl)CCCl)cc5)CCC43C)C1CCC(=O)N2 (stereo not given)
T/C (endpoint: median tumor weight (est.), dose: 0.75 mg/kg/injection, schedule: Q07DX005 (ip), vehicle: saline with Tween-80): 63 % of control
T/C (endpoint: median tumor weight (est.), dose: 1.5 mg/kg/injection, schedule: Q07DX005 (ip), vehicle: saline with Tween-80): 109 % of control
T/C [8]: 91 % of control
T/C (endpoint: median tumor weight (est.), dose: 3.0 mg/kg/injection, schedule: Q07DX005 (ip), vehicle: saline with Tween-80): 99 % of control
T/C [9]: 41 % of control
T/C (endpoint: median tumor weight (est.), dose: 6.0 mg/kg/injection, schedule: Q07DX005 (ip), vehicle: saline with Tween-80): 55 % of control
T/C [10]: 30 % of control
T/C (endpoint: median tumor weight (est.), dose: 12.0 mg/kg/injection, schedule: Q07DX005 (ip), vehicle: saline with Tween-80): 12 % of control
T/C [11]: 8 % of control
T/C (endpoint: median tumor weight (est.), dose: 24.0 mg/kg/injection, schedule: Q07DX005 (ip), vehicle: saline with Tween-80): 1 % of control

CC1=C2CC(C)(C)/C=C\C(=O)/C(C)=C\C3=C[C@H](C)C[C@]3(O2)C1=O
T/C (endpoint: median tumor weight (est.), dose: 1.5 mg/kg/injection, schedule: Q07DX005 (ip), vehicle: Klucel (hydroxypropylcellulose) (HPC)): 78 % of control
T/C (endpoint: median tumor weight (est.), dose: 1.5 mg/kg/injection, schedule: Q07DX005 (ip), vehicle: saline): 94 % of control
T/C [8]: 212 % of control
T/C [9]: 174 % of control
T/C (endpoint: median tumor weight (est.), dose: 6.0 mg/kg/injection, schedule: Q07DX005 (ip), vehicle: saline): 112 % of control
T/C [10]: 80 % of control
T/C (endpoint: median tumor weight (est.), dose: 12.0 mg/kg/injection, schedule: Q07DX005 (ip), vehicle: saline): 88 % of control
T/C [11]: 466 % of control
T/C (endpoint: median tumor weight (est.), dose: 48.0 mg/kg/injection, schedule: Q07DX005 (ip), vehicle: saline): 44 % of control

COc1cc(OC)c(NC(=O)ON2C(=O)c3ccccc3C2=O)cc1Cl
T/C (endpoint: median tumor weight change, dose: 31.25 mg/kg/injection, schedule: Q01DX001 (ip), vehicle: saline with Tween-80): 62 % of control
T/C (endpoint: median tumor weight change, dose: 62.5 mg/kg/injection, schedule: Q01DX001 (ip), vehicle: saline with Tween-80): 81 % of control
T/C (endpoint: median tumor weight change, dose: 125.0 mg/kg/injection, schedule: Q01DX001 (ip), vehicle: saline with Tween-80): 92 % of control
T/C (endpoint: median tumor weight change, dose: 500.0 mg/kg/injection, schedule: Q01DX001 (ip), vehicle: saline with Tween-80): 26 % of control

COC(=O)c1cc2cc(C)c(C)c(C)c2c2ccc(C)cc12
T/C (endpoint: median tumor weight (est.), dose: 100.0 mg/kg/injection, schedule: Q07DX005 (ip), vehicle: saline with Tween-80): 101 % of control

CC1=NN(c2cccc(S(=O)(=O)O)c2)C(=O)C1N=Nc1cc(Cl)cc(S(=O)(=O)O)c1O.CC1=NN(c2cccc(S(=O)(=O)O)c2)C(=O)C1N=Nc1cc(Cl)cc(S(=O)(=O)O)c1O.[Cr] (stereo not given)
T/C [6]: 245 % of control
T/C [7]: 184 % of control

ClCC[N+]12CC[N+](CCCl)(CC1)C2 (tested in a mixture with another compound)
T/C [1]: 75 % of control
T/C [2]: 67 % of control
T/C [3]: 93 % of control
T/C [4]: 43 % of control
T/C [5]: 43 % of control
T/C (endpoint: median tumor weight (est.), dose: 600.0 mg/kg/injection, schedule: Q07DX005 (ip), vehicle: saline): 12 % of control
